US8268859B2, “Glucocorticoid mimetics, methods of making them, pharmaceutical compositions and uses thereof” (Boehringer Ingelheim International GmbH, priority 2008, dated 2012)
pIC50: −log10 of the molar value. Where two headings read alike, the source gives them in different places.

Tests used:
[1] = target: T1, human glucocorticoid receptor (GR) complex (Homo sapiens, UniProt P04150); assay: Glucocorticoid receptor fluorescence polarization competitive binding assay;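 also: GR complex expressed in an insect system, wells lacking compound give full signal, excess unlabeled dexamethasone defines the blank, IC50 from logistic curve fit of polarization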
T1 construct: made in house; host or cells: insect expression system (baculovirus lysate)
T1 sequence (P04150 1-777): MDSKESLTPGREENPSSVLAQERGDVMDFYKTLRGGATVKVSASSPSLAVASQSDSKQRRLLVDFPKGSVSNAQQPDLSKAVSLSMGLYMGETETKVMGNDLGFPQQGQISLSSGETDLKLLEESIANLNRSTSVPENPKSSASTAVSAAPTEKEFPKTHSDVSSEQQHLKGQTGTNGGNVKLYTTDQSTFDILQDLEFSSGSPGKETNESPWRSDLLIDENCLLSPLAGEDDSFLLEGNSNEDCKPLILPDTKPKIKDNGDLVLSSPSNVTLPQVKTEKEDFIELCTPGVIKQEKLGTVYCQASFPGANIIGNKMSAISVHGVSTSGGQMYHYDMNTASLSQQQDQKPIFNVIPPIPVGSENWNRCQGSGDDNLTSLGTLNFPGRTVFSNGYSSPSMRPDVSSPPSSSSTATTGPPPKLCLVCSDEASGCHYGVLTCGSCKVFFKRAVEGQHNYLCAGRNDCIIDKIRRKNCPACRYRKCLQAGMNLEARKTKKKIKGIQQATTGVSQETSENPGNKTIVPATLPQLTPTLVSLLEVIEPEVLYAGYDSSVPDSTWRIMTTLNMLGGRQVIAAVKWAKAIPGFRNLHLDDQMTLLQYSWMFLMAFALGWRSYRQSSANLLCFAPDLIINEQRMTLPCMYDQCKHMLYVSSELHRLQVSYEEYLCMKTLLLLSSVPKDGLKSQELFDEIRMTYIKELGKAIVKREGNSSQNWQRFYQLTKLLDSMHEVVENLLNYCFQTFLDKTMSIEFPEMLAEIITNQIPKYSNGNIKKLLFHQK

human recombinant CYP3A4 = human recombinant CYP3A4 (Homo sapiens, UniProt P08684); assay: Cytochrome P450 inhibition assay (substrate 7-benzyloxy-4-(trifluoromethyl)coumarin); assay type: in vitro ADME;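 also: compounds preincubated at least 10 min at 37 °C before adding enzyme plus substrate, reaction run 30 min at 37 °C, ketoconazole standard curve on every plate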
[2] = Table 1, competition with TAMRA-labeled dexamethasone, read-out: GR IC50
[3] = Table 2, comparison compounds, read-out: CYP3A4 Inhibition IC50

Chain of human recombinant CYP3A4 (P08684 whole entry): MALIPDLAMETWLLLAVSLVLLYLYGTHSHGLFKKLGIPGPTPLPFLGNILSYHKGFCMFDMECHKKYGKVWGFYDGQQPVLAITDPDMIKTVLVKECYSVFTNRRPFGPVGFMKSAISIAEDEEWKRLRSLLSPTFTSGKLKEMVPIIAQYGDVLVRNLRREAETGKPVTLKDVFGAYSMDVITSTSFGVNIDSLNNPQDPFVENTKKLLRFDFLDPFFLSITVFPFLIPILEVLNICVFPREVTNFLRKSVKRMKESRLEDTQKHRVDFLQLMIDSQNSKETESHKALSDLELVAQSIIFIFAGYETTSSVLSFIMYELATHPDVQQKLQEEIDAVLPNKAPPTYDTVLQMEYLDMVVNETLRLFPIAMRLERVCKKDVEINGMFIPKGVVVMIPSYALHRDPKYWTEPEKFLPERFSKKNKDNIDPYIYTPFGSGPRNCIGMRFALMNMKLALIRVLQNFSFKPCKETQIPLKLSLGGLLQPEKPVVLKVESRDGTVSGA

Row | Compound | pIC50 [1, 2] | also measured
1 | CCCS(=O)(=O)c1cc2cc(CC(O)(CC(C)(C)c3ccccc3S(C)(=O)=O)C(F)(F)F)[nH]c2cn1 (centres unmarked) [1,1,1-Trifluoro-4-(2-methanesulfonylphenyl)-4-methyl-2-[5-(propane-1-sulfonyl)-1H-pyrrolo[2,3-c]pyridin-2-ylmethyl]pentan-2-ol] | – | pIC50 [1]: 7.62; pIC50 (human recombinant CYP3A4; Table 1, read-out: CYP3A4 IC50): 5.80
2 | CC(C)S(=O)(=O)c1cc2cc(CC(O)(CC(C)(C)c3ccccc3S(C)(=O)=O)C(F)(F)F)[nH]c2cn1 (centres unmarked) [1,1,1-Trifluoro-4-(2-methanesulfonylphenyl)-4-methyl-2-[5-(propane-2-sulfonyl)-1H-pyrrolo[2,3-c]pyridin-2-ylmethyl]pentan-2-ol] | 7.01 | pIC50 (human recombinant CYP3A4; Table 1, read-out: CYP3A4 IC50): 4.66
3 | CC(C)(CC(O)(Cc1cc2nc(S(C)(=O)=O)ccc2[nH]1)C(F)(F)F)c1cccc(F)c1S(C)(=O)=O (centres unmarked) [1,1,1-Trifluoro-4-(3-fluoro-2-methanesulfonylphenyl)-2-(5-meethanesulfonyl-1H-pyrrolo[3,2-b]pyridin-2-ylmethyl)-4-methylpentan-2-ol] | 7.19 | pIC50 (human recombinant CYP3A4; Table 1, read-out: CYP3A4 IC50): 4.92
4 | CC(C)(CC(O)(Cc1cc2cc(S(C)(=O)=O)ncc2[nH]1)C(F)(F)F)c1cccc(F)c1S(C)(=O)=O (centres unmarked) [1,1,1-Trifluoro-4-(3-fluoro-2-methanesulfonylphenyl)-2-(5-methanesulfonyl-1H-pyrrolo[2,3-c]pyridin-2-ylmethyl)-4-methylpentan-2-ol] | 7.21 | pIC50 (human recombinant CYP3A4; Table 1, read-out: CYP3A4 IC50): < 4.52
5 | CC(C)(CC(O)(Cc1cc2cc(S(C)(=O)=O)ncc2[nH]1)C(F)(F)F)c1cc(F)ccc1S(C)(=O)=O (centres unmarked) [1,1,1-Trifluoro-4-(5-fluoro-2-methanesulfonylphenyl)-2-(5-methanesulfonyl-1H-pyrrolo[2,3-c]pyridin-2-ylmethyl)-4-methylpentan-2-ol] | 7.72 | –
6 | CCCS(=O)(=O)c1cc2cc(CC(O)(CC(C)(C)c3cc(F)ccc3S(C)(=O)=O)C(F)(F)F)[nH]c2cn1 (centres unmarked) [1,1,1-Trifluoro-4-(5-fluoro-2-methanesulfonylphenyl)-4-methyl-2-[5-(propane-1-sulfonyl)-1H-pyrrolo[2,3-c]pyridin-2-ylmethyl]pentan-2-ol] | 7.89 | –
7 | CC(C)S(=O)(=O)c1cc2cc(CC(O)(CC(C)(C)c3cc(F)ccc3S(C)(=O)=O)C(F)(F)F)[nH]c2cn1 (centres unmarked) [1,1,1-Trifluoro-4-(5-fluoro-2-methanesulfonylphenyl)-4-methyl-2-[5-(propane-2-sulfonyl)-1H-pyrrolo[2,3-c]pyridin-2-ylmethyl]pentan-2-ol] | 7.15 | –
8 | CCS(=O)(=O)c1cc2cc(CC(O)(CC(C)(C)c3ccccc3S(C)(=O)=O)C(F)(F)F)[nH]c2cn1 (centres unmarked) [2-(5-Ethanesulfonyl-1H-pyrrolo[2,3-c]pyridin-2-ylmethyl)-1,1,1-trifluoro-4-(2-methanesulfonylphenyl)-4-methylpentan-2-ol] | 7.36 | –
9 | CCS(=O)(=O)c1cc2cc(CC(O)(CC(C)(C)c3cccc(F)c3S(C)(=O)=O)C(F)(F)F)[nH]c2cn1 (centres unmarked) [2-(5-Ethanesulfonyl-1H-pyrrolo[2,3-c]pyridin-2-ylmethyl)-1,1,1-trifluoro-4-(3-fluoro-2-methanesulfonylphenyl)-4-methylpentan-2-ol] | 7.26 | –
10 | CCS(=O)(=O)c1cc2cc(CC(O)(CC(C)(C)c3ccc(C)cc3C(N)=O)C(F)(F)F)[nH]c2cn1 (centres unmarked) [2-[3-(5-Ethanesulfonyl-1H-pyrrolo[2,3-c]pyridin-2-ylmethyl)-4,4,4-trifluoro-3-hydroxy-1,1-dimethylbutyl]-5-methylbenzamide] | 7.10 | –
11 | CCS(=O)(=O)c1cc2cc(CC(O)(CC(C)(C)c3ccccc3S(N)(=O)=O)C(F)(F)F)[nH]c2cn1 (centres unmarked) [2-[3-(5-Ethanesulfonyl-1H-pyrrolo[2,3-c]pyridin-2-ylmethyl)-4,4,4-trifluoro-3-hydroxy-1,1-dimethylbutyl]benzenesulfonamide] | 6.85 | –
12 | CC(C)(C[C@@](O)(Cc1cc2nc(S(C)(=O)=O)ccc2[nH]1)C(F)(F)F)c1ccccc1C(N)=O [2-[(R)-4,4,4-Trifluoro-2-hydroxy-3-(5-meethanesulfonyl-1H-pyrrolo[3,2-b]pyridin-2-ylmethyl)-1,1-dimethylbutyl]benzamide] | 7.49 | –
13 | CC(C)(CC(O)(Cc1cc2cc(S(C)(=O)=O)ncc2[nH]1)C(F)(F)F)c1cc(F)ccc1Br (centres unmarked) [4-(2-Bromo-5-fluorophenyl)-1,1,1-trifluoro-2-(5-methanesulfonyl-1H-pyrrolo[2,3-c]pyridin-2-ylmethyl)-4-methylpentan-2-ol] | 8.22 | –
14 | CC(C)(CC(O)(Cc1cc2cc(S(C)(=O)=O)ncc2[nH]1)C(F)(F)F)c1cc(Cl)ccc1S(C)(=O)=O (centres unmarked) [4-(5-Chloro-2-methanesulfonylphenyl)-1,1,1-trifluoro-2-(5-methanesulfonyl-1H-pyrrolo[2,3-c]pyridin-2-ylmethyl)-4-methylpentan-2-ol] | – | pIC50 [1]: 8.00
15 | CC(C)(CC(O)(Cc1cc2cc(S(C)(=O)=O)ncc2[nH]1)C(F)(F)F)c1cc(F)ccc1O (centres unmarked) [4-Fluoro-2-[4,4,4-trifluoro-3-hydroxy-3-(5-methanesulfonyl-1H-pyrrolo[2,3-c]pyridin-2-ylmethyl)-1,1-dimethylbutyl]phenol] | 7.60 | –
16 | CCS(=O)(=O)c1cc2cc(CC(O)(CC(C)(C)c3cc(C)ccc3C(N)=O)C(F)(F)F)[nH]c2cn1 (centres unmarked) [4-Methyl-2-[4,4,4-trifluoro-3-hydroxy-3-(5-ethanesulfonyl-1H-pyrrolo[2,3-c]pyridin-2-ylmethyl)-1,1-dimethylbutyl]benzamide] | 7.42 | –
17 | CC(C)(CC(O)(Cc1cc2ccncc2[nH]1)C(F)(F)F)c1ccccc1S(C)(=O)=O (centres unmarked) [Compound 2, reference compound] | – | pIC50 (human recombinant CYP3A4; [3]): 6.74
18 | CC(C)(CC(O)(Cc1cc2ccncc2[nH]1)C(F)(F)F)c1ccccc1C(N)=O (centres unmarked) [Compound 5, reference compound] | – | pIC50 (human recombinant CYP3A4; [3]): 6.29
19 | CC(C)(CC(O)(Cc1cc2ccncc2[nH]1)C(F)(F)F)c1ccccc1 (centres unmarked) [Compound 7, reference compound] | – | CYP inhibition (in words) (human recombinant CYP3A4; Table 2): potent CYP inhibitor; pIC50 (human recombinant CYP3A4; [3]): 6.05
20 | CC(C)(C[C@@](O)(Cc1cc2cc(S(C)(=O)=O)ncc2[nH]1)C(F)(F)F)c1ccc(Cl)cc1S(C)(=O)=O [drawing 13, (R)-4-(4-Chloro-2-methanesulfonylphenyl)-1,1,1-trifluoro-2-(5-methanesulfonyl-1H-pyrrolo[2,3-c]pyridin-2-ylmethyl)-4-methylpentan-2-ol] | – | pIC50 [1]: 7.44

More lines, main results first:

Row | pIC50 [1, 2] | Compound | also measured
21 | 7.36 | Cc1ccc(C(N)=O)c(C(C)(C)CC(O)(Cc2cc3cc(S(C)(=O)=O)ncc3[nH]2)C(F)(F)F)c1 (centres unmarked) [4-Methyl-2-[4,4,4-trifluoro-3-hydroxy-3-(5-methanesulfonyl-1H-pyrrolo[2,3-c]pyridin-2-ylmethyl)-1,1-dimethylbutyl]benzamide] | –
22 | 7.36 | CCS(=O)(=O)c1cc2cc(CC(O)(CC(C)(C)c3ccc(Cl)cc3C(N)=O)C(F)(F)F)[nH]c2cn1 (centres unmarked) [5-Chloro-2-[3-(5-ethanesulfonyl-1H-pyrrolo[2,3-c]pyridin-2-ylmethyl)-4,4,4-trifluoro-3-hydroxy-1,1-dimethylbutyl]benzamide] | –
23 | 7.24 | Cc1ccc(C(C)(C)CC(O)(Cc2cc3nc(S(C)(=O)=O)ccc3[nH]2)C(F)(F)F)c(C(N)=O)c1 (centres unmarked) [5-Methyl-2-[4,4,4-trifluoro-3-hydroxy-3-(5-methanesulfonyl-1H-pyrrolo[3,2-b]pyridin-2-ylmethyl)-1,1-dimethylbutyl]benzamide] | –
24 | 6.60 | Cc1ccc(C(C)(C)CC(O)(Cc2cc3cc(S(=O)(=O)C(C)C)ncc3[nH]2)C(F)(F)F)c(C(N)=O)c1 (centres unmarked) [5-Methyl-2-{4,4,4-trifluoro-3-hydroxy-1,1-dimethyl-3-[5-(propane-2-sulfonyl)-1H-pyrrolo[2,3-c]pyridin-2-ylmethyl]butyl}benzamide] | –
25 | 7.55 | CC(C)(C[C@@](O)(Cc1cc2cc(S(C)(=O)=O)ncc2[nH]1)C(F)(F)F)c1ccc(F)cc1S(C)(=O)=O [drawing 10, (R)-1,1,1-Trifluoro-4-(4-fluoro-2-methanesulfonylphenyl)-2-(5-methanesulfonyl-1H-pyrrolo[2,3-c]pyridin-2-ylmethyl)-4-methylpentan-2-ol] | –
26 | 7.41 | CCS(=O)(=O)c1cc2cc(CC(O)(CC(C)(C)c3ccc(Cl)cc3S(C)(=O)=O)C(F)(F)F)[nH]c2cn1 (centres unmarked) [drawing 15, 4-(4-Chloro-2-methanesulfonylphenyl)-2-(5-ethanesulfonyl-1H-pyrrolo[2,3-c]pyridin-2-ylmethyl)-1,1,1-trifluoro-4-methylpentan-2-ol] | –
27 | 7.54 | CCS(=O)(=O)c1cc2cc(CC(O)(CC(C)(C)c3ccc(F)cc3S(C)(=O)=O)C(F)(F)F)[nH]c2cn1 (centres unmarked) [drawing 16, 2-(5-Ethanesulfonyl-1H-pyrrolo[2,3-c]pyridin-2-ylmethyl)-1,1,1-trifluoro-4-(4-fluoro-2-methanesulfonylphenyl)-4-methylpentan-2-ol] | –
